Data as given in patent publication US10966426B2, “Herbicidal compositions comprising phenylpyrimidines” (BASF SE, priority 2016, dated 2021).

Assays:
Type in all cases: in vivo
[1] = tested on: Lolium multiflorum; test: greenhouse post-emergence treatment, LOLMU; conditions: Lolium multiflorum, sc, 480 h, 20 DAT, LOLMU, read-out: % activity
Experimental: (§1) The culture containers used were plastic pots containing loamy sand with approximately 3.0% of humus as substrate. The seeds of the test plants were sown separately for each species.
(§2) To this end, the test plants were either sown directly, and grown in the same containers, or they were first grown separately as seedlings and transplanted into the test containers a few days prior to treatment.
(§3) Depending on the species, the plants were kept at 10-25° C. and 20-35° C., respectively.
(§4) The test period extended over 2 to 4 weeks. During this time, the plants were tended and their response to the individual treatments was evaluated.
(§5) Evaluation was carried out using a scale from 0 to 100. 100 means no emergence of the plants, or complete destruction of at least the above-ground parts, and 0 means no damage or normal course of growth. A good herbicidal activity is given at values of at least 70, and very good herbicidal activity is given at values of at least 85.
(§6) In the examples, the solvent used was water.
(§7) In the examples below, using the method of S. R. Colby (1967) “Calculating synergistic and antagonistic responses of herbicide combinations”, Weeds 15, p. […] E=X+Y−(X·Y/100) where X=effect in percent using herbicide A at an application rate a; • Y=effect in percent using herbicide B at application rate b; • E=expected effect (in %) of herbicide A+herbicide B at application rates a+b.

[2] = tested on: Avena fatua; test: greenhouse pre-emergence treatment, AVEFA; conditions: Avena fatua, 504 h, 21 DAT, AVEFA, pendimethalin SC 400 g/l solo 125 gai/ha
From the text: as §1
(§8) For the pre-emergence treatment, the active compounds, suspended or emulsified in water, were applied directly after sowing by means of finely distributing nozzles. The containers were irrigated gently to promote germination and growth and subsequently covered with transparent plastic hoods until the plants had rooted. This cover caused uniform germination of the test plants unless this was adversely affected by the active compounds.
as §3, §4, §5
(§9) The respective stated components A and B, and if appropriate, C were formulated as a 10% by weight strength emulsion concentrate and, with addition of the amount of solvent system, introduced into the spray liquor used for applying the active compound. In the examples, the solvent used was water.
(§10) In the examples below, using the method of S. R. Colby (1967) “Calculating synergistic and antagonistic responses of herbicide combinations”, Weeds 15, p. 22ff., the value E, which is expected if the activity of the individual active compounds is only additive, was calculated. E=X+Y−(X·Y/100) where X=effect in percent using herbicide A at an application rate a; • Y=effect in percent using herbicide B at application rate b; • E=expected effect (in %) of herbicide A+herbicide B at application rates a+b.

[3] = tested on: Bromus sterilis; test: greenhouse pre-emergence treatment, BROST; conditions: Bromus sterilis, 504 h, 21 DAT, BROST
From the text: as §1, §8, §3, §4, §5, §9, §10

[4] = tested on: Matricaria chamomilla; test: greenhouse post-emergence treatment, MATCH; conditions: Matricaria chamomilla, sc, 480 h, 20 DAT, MATCH
Experimental: as §1
(§11) For the post-emergence treatment, the test plants were grown to a plant height of from 3 to 15 cm, depending on the plant habit, and only then treated with the active compounds which had been suspended or emulsified in water. To this end, the test plants were either sown directly, and grown in the same containers, or they were first grown separately as seedlings and transplanted into the test containers a few days prior to treatment.
as §3, §4, §5, §9, §10

[5] = tested on: Ambrosia elatior; test: greenhouse pre-emergence treatment, AMBEL; conditions: Ambrosia artemisiifolia, 504 h, 21 DAT, AMBEL
From the text: as §1, §8, §3, §4, §5, §9, §10

[6] = tested on: Alopecurus myosuroides; test: greenhouse post-emergence treatment, ALOMY; conditions: Alopecurus myosuroides, 480 h, 20 DAT, ALOMY, pendimethalin SC 400 g/l solo 125 gai/ha
Experimental: as §1, §2, §3, §4, §5, §6, §7

[7] = tested on: Helianthus annuus; test: greenhouse pre-emergence treatment, HELAN; conditions: Helianthus annuus, 504 h, 21 DAT, HELAN
From the text: as §1, §8, §3, §4, §5, §9, §10

[8] = tested on: Avena fatua; test: greenhouse post-emergence treatment, AVEFA; conditions: Avena fatua, sc, 480 h, 20 DAT, AVEFA
In short: (§12)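 Scoring ran on a 0-100 scale, 100 meaning no emergence or destroyed above-ground parts, over a 2-4 week period; Colby formula E=X+Y−(X·Y/100) gave expected mixture effects. Species grew separately in loamy sand (about 3.0% humus) at 10-25° C or 20-35° C, with water as solvent.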

[9] = tested on: Digitaria sanguinalis; test: greenhouse post-emergence treatment, DIGSA; conditions: Digitaria sanguinalis, sc, 480 h, 20 DAT, DIGSA, pendimethalin SC 400 g/l solo 125 gai/ha, read-out: % activity
In short: as §12

[10] = tested on: Stellaria media; test: greenhouse post-emergence treatment, STEME; conditions: Stellaria media, sc, 480 h, 20 DAT, STEME, pendimethalin SC 400 g/l solo 500 gai/ha
Experimental: as §1, §11, §3, §4, §5, §9, §10

[11] = tested on: Bromus sterilis; test: greenhouse post-emergence treatment, BROST; conditions: Bromus sterilis, sc, 480 h, 20 DAT, BROST
In short: as §12

[12] = tested on: Setaria viridis; test: greenhouse post-emergence treatment, SETVI; conditions: Setaria viridis, sc, 480 h, 20 DAT, SETVI, pendimethalin SC 400 g/l solo 250 gai/ha, read-out: % activity
Experimental: as §1, §2, §3, §4, §5, §6, §7

[13] = tested on: Polygonum convolvulus; test: greenhouse post-emergence treatment, POLCO; conditions: Fallopia convolvulus, sc, 480 h, 20 DAT, POLCO
Experimental: as §1, §11, §3, §4, §5, §9, §10

[14] = tested on: Brachiaria decumbens; test: greenhouse pre-emergence treatment, BRADC; conditions: Urochloa decumbens, 504 h, 21 DAT, BRADC
From the text: as §1, §8, §3, §4, §5, §9, §10

[15] = tested on: Apera spica-venti; test: greenhouse post-emergence treatment, APESV; conditions: solo, SC 400 g/l, APESV, 250 gai/ha, 20 DAT
Experimental: as §1, §11, §3, §4, §5, §9, §10

[16] = pendimethalin SC 400 g/l solo 125 gai/ha
[17] = pendimethalin SC 400 g/l solo 250 gai/ha
[18] = pendimethalin SC 400 g/l solo 500 gai/ha
[19] = pendimethalin SC 400 g/l solo 1000 gai/ha
[20] = pendimethalin SC 400 g/l solo 125 gai/ha, read-out: % activity

With `CCC(CC)Nc1c([N+](=O)[O-])cc(C)c(C)c1[N+](=O)[O-]` [pendimethalin] the inhibition at 125 g/ha [1, 16] was 10%, the inhibition at 250 g/ha [1, 17] was 20% and the inhibition at 125 g/ha [2] was 0%. For the same molecule, the inhibition at 250 g/ha ([3]; pendimethalin SC 400 g/l solo 250 gai/ha, read-out: % activity) was 0%, the inhibition at 500 g/ha [3, 18] was 0% and the inhibition at 1000 g/ha [3, 19] was 10%. For the same molecule, the inhibition at 500 g/ha [4, 18] was 0%, the inhibition at 1000 g/ha [4, 19] was 0% and the percent weed control (herbicidal activity, 0-100 scale) at 250 g/ha [5, 17] was 0%. For the same molecule, the percent weed control (herbicidal activity, 0-100 scale) at 1000 g/ha [5, 19] was 0%, the inhibition at 125 g/ha [6] was 20% and the inhibition at 100 g/ha ([7]; pendimethalin SC 400 g/l solo 100 gai/ha) was 10%. For the same molecule, the inhibition at 125 g/ha [7, 20] was 0%, the inhibition at 250 g/ha [7, 17] was 0% and the inhibition at 500 g/ha [7, 18] was 10%. For the same molecule, the inhibition at 125 g/ha [8, 20] was 0%, the inhibition at 250 g/ha [8, 17] was 0% and the inhibition at 500 g/ha [8, 18] was 0%. It also gave an inhibition at 1000 g/ha [8, 19] of 0%, an inhibition at 125 g/ha [9] of 45% and an inhibition at 500 g/ha [10] of 70%. It also gave an inhibition at 125 g/ha [11, 16] of 0%, an inhibition at 250 g/ha [11, 17] of 0% and an inhibition at 500 g/ha [11, 18] of 0%. For the same molecule, the inhibition at 1000 g/ha [11, 19] was 0%, the inhibition at 250 g/ha [12] was 50% and the inhibition at 125 g/ha [13, 16] was 40%. For the same molecule, the inhibition at 500 g/ha [13, 18] was 60%, the % herbicidal activity (weed control, 0-100 scale) at 250 g/ha [14, 17] was 0% and the % herbicidal activity (weed control, 0-100 scale) at 500 g/ha [14, 18] was 0%. The % herbicidal activity (weed control, 0-100 scale) at 1000 g/ha [14, 19] was 0% and the “% activity” value [15] was 0%.
